Assay results published in paper PMC10733349, “Synthesis and in-vitro anti-proliferative with antimicrobial activity of new coumarin containing heterocycles hybrids” (Scientific Reports, 2023).
pIC50: −log10 of the molar value. In brackets after ≈: the same amount, converted by molar mass. Several values for one entry are separate records, joined by “and”; a condition that tells them apart may be missing. Equal entries are not always repeated.

How the values were obtained:
[1] = tested on: WISH cell line; experiment: MTT safety assay on WISH normal cells; assay type: cell-based, Human; conditions: 2 days
Description: (§1) Cell lines; WISH cell line (Human amnion-derived normal epithelial cells, CCL-25), MDA-MB-231 cell line (Human, mammary gland/breast adenocarcinoma, HTB-26), CaCo-2 cell line (Human Colorectal adenocarcinoma, epithelial cells, HTB-37), A549 cell line (Human Lung adenocarcinoma, epithelial cells, CCL-185) cell lines and HepG-2 (liver hepatocellular carcinoma, HEPG2, HB-8065) were obtained from ATCC, originally with license and serial numbers as mentioned.
(§2) The safety assays of coumarin hybrids on noncancerous cell lines and their anticancer effects on cancerous cells were gauged utilizing MTT-assay (Promega) in accordance with the instruction protocol. Starting from 60 to 200 µM, serial dilutions of coumarin hybrids were prepared in sterile DMSO to be treated cell lines at final concentrations 30 to 100 µM. The treated cells were incubated for 2 days, and the cellular cytotoxicity was detected by quantifying the solubilized formazan in DMSO at 570 nm. The inhibition concentration of 50 (IC50) was calculated from the cytotoxicity% curve using GraphPad prism 9.

[2] = tested on: A549 cell line; experiment: MTT anti-proliferative assay, A549; assay type: cell-based, Human; conditions: for pIC50: Homo sapiens, A549, 48 h, A549, MTT, 2 days; for Selective index: SI = IC50 normal cells (WISH)/IC50 A549
Description: as §1, §2
(§3) Cancer cell selectivity index of Coumarin hybrids samples were measured as explained by, with a minor modification; (SI = IC50nc/IC50cc), where IC50nc refers to the value of IC50 of the coumarin hybrids compounds on normal cells, while IC50cc refers to the IC50 of the coumarin hybrids compounds on cancer cell line.

[3] = tested on: CaCo-2 cell line; experiment: MTT anti-proliferative assay, CaCo-2; assay type: cell-based, Human; conditions: for pIC50: CaCo-2, MTT, 2 days; for Selective index: SI = IC50 normal cells (WISH)/IC50 CaCo-2
Description: as §1, §2, §3

[4] = tested on: MDA-MB-231 cell line; experiment: MTT anti-proliferative assay, MDA-MB-231; assay type: cell-based, Human; conditions: for pIC50: MDA-MB-231, MTT, 2 days; for Selective index: SI = IC50 normal cells (WISH)/IC50 MDA-MB-231
Description: as §1, §2, §3

[5] = tested on: HepG-2; experiment: MTT anti-proliferative assay, HepG-2; assay type: cell-based, human; conditions: for pIC50: HepG-2, MTT, 2 days; for Selective index: SI = IC50 normal cells (WISH)/IC50 HepG-2
Description: as §1, §2, §3

[6] = tested on: Escherichia coli; experiment: Antimicrobial microplate assay (MIC), E. coli; assay type: cell-based; conditions: two values per compound
Description: (§4) Microbial strains: Escherichia coli, pseudomonas aeruginosa, Staphylococcus aureus, Streptococcus mutans and Candida albicans were collected from the microbial culture collection of Biopharmaceutical Products Research Department, Genetic Engineering and Biotechnology Research Institute, SRTA-City, New Borg El-Arab city, Alexandria, Egypt.
(§5) The antimicrobial activity of coumarin hybrids samples were checked against different multiple drug resistant microorganisms (Escherichia coli, pseudomonas aeruginosa, Staphylococcus aureus and Streptococcus mutans and Candida albicans) using various concentrations (30 to 100 µM). An aliquot of 100.0 µl of each sample concentration was added to an equal volume of each microbial growth dilution (about 10^6 CFU/ml) and inoculated into 96 well plate. Furthermore, 100.0 µl of LB media was added to 100.0 µl of microbial growth to set as the negative control group. After that, the inoculated plates were incubated overnight at 37 °C then, the microbial turbidity was measured using automated ELIZA microplate reader (BINDER BIOTECK E LX 800) adjusted at 620 nm. The microbial inhibition percentage after treatments were quantified using the following equation:1 Inhibition percentage=A-A1/A0×100. where, A: the treatment group absorbance, A1: the blank absorbance, and A0: the control group absorbance.

[7] = tested on: Streptococcus mutans; experiment: Antimicrobial microplate assay (MIC), S. mutans; assay type: cell-based; conditions: two values per compound
Description: as §4, §5

[8] = tested on: Staphylococcus aureus; experiment: Antimicrobial microplate assay (MIC), S. aureus; assay type: cell-based; conditions: Staph. aureus, two values per compound
Description: as §4, §5

[9] = tested on: Candida albicans; experiment: Antimicrobial microplate assay (MIC), C. albicans; assay type: cell-based; conditions: two values per compound
Description: as §4, §5

SMILES	pIC50 [2]	pIC50 ([3]; Homo sapiens, Caco-2, 48 h)	pIC50 ([4]; Homo sapiens, MDA-MB-231, 48 h)	MIC ([6]; Escherichia coli)	MIC [6]	MIC ([7]; Streptococcus mutans)	MIC [7]	MIC [8]	MIC ([8]; Staphylococcus aureus)	MIC ([9]; Candida albicans)	MIC [9]	pIC50 ([1]; Homo sapiens, 48 h)	pIC50 ([5]; Homo sapiens, HepG2, 48 h)	Selective index [2]	Selective index [3]	Selective index [4]	Selective index [5]	other results
O=c1ccc2ccccc2o1 [Ct, coumarin]	3.59	4.00	3.95	59 µM (≈ 8.62 µg/mL)	58 µM (≈ 8.48 µg/mL)	240 µM (≈ 35.1 µg/mL)	241 µM (≈ 35.2 µg/mL)	63 µM (≈ 9.21 µg/mL)	62 µM (≈ 9.06 µg/mL)	30 µM (≈ 4.38 µg/mL)	29 µM (≈ 4.24 µg/mL)	3.75	3.64	0.6915	1.701	1.599	0.7613	–
O=C(O)c1cc2ccccc2oc1=O [compound 1, coumarin-3-carboxylic acid, reference compound]	3.45	2.95	3.88	20 µM (≈ 3.8 µg/mL)	21.76 µM (≈ 4.14 µg/mL)	17 µM (≈ 3.23 µg/mL)	16.65 µM (≈ 3.17 µg/mL)	8.5 µM (≈ 1.62 µg/mL)	8 µM (≈ 1.52 µg/mL)	10 µM (≈ 1.9 µg/mL)	9.8 µM (≈ 1.86 µg/mL)	3.48	3.03	0.9497	0.3027	2.521	0.3617	pIC50 [1]: 3.48
COc1cccc2c1C(=O)c1c(O)c3c(c(O)c1C2=O)C[C@@](O)(C(=O)CO)C[C@@H]3O[C@H]1C[C@H](N)[C@H](O)[C@H](C)O1 [DOX, doxorubicin, reference compound]	5.42	5.54	6.18	–	–	–	–	–	–	–	–	5.75	5.93	0.7653	0.6148	1.954	1.653	–

More lines, main results first:

pIC50 [2]	pIC50 ([3]; Homo sapiens, Caco-2, 48 h)	pIC50 ([4]; Homo sapiens, MDA-MB-231, 48 h)	MIC ([6]; Escherichia coli)	MIC [6]	MIC ([7]; Streptococcus mutans)	MIC [7]	MIC [8]	MIC ([8]; Staphylococcus aureus)	MIC ([9]; Candida albicans)	MIC [9]	SMILES	pIC50 ([1]; Homo sapiens, 48 h)	pIC50 ([5]; Homo sapiens, HepG2, 48 h)	Selective index [2]	Selective index [3]	Selective index [4]	Selective index [5]	other results
4.19	4.07	4.05	–	–	–	–	–	–	–	–	Cn1c2nc3ccccc3c-2c(NCCCNC(=O)c2cc3ccccc3oc2=O)c2ccccc21 [13c, N-(3-((5-methyl-5H-indolo[2,3-b]quinolin-11-yl)amino)propyl)-2-oxo-2H-chromene-3-carboxamide]	4.02	4.15	–	–	–	–	–
4.26	4.28	3.81	45 µM (≈ 17.7 µg/mL)	43 µM (≈ 16.9 µg/mL)	100 µM (≈ 39.4 µg/mL)	103 µM (≈ 40.6 µg/mL)	22 µM (≈ 8.66 µg/mL)	20 µM (≈ 7.88 µg/mL)	28 µM (≈ 11 µg/mL)	27 µM (≈ 10.6 µg/mL)	O=C(NCCNc1ccnc2cc(Cl)ccc12)c1cc2ccccc2oc1=O [7b, N-(2-((7-Chloroquinolin-4-yl)amino)ethyl)-2-oxo-2H-chromene-3-carboxamide]	4.03	4.05	1.6 and 1.695	1.76 and 1.764	0.6038	1.049	melting point: 274 to 276 °C; pIC50 [3]: 4.28
–	4.29	3.99	46 µM (≈ 20.3 µg/mL)	45 µM (≈ 19.9 µg/mL)	130 µM (≈ 57.4 µg/mL)	132 µM (≈ 58.3 µg/mL)	30 µM (≈ 13.3 µg/mL)	29 µM (≈ 12.8 µg/mL)	62 µM (≈ 27.4 µg/mL)	60 µM (≈ 26.5 µg/mL)	O=C(Nc1ccc(Nc2ccnc3cc(Cl)ccc23)cc1)c1cc2ccccc2oc1=O [7d, N-(4-((7-Chloroquinolin-4-yl)amino)phenyl)-2-oxo-2H-chromene-3-carboxamide]	3.86	4.08	0.67 and 0.6789	2.666	1.351	1.67 and 1.671	pIC50 [3]: 4.28; pIC50 [5]: 4.08
–	–	–	–	–	–	–	–	–	–	0.0011 µM and 0.0014 µM	Cn1c2nc3ccccc3c-2c(NCCNC(=O)c2cc3ccccc3oc2=O)c2ccccc21 [13b, N-(2-((5-Methyl-5H-indolo[2,3, b]quinolin-11-yl)amino)ethyl)-2-oxo-2H-chromene-3-carboxamide]	–	–	–	–	–	–	–
4.01	4.24	4.29	125 µM (≈ 51 µg/mL)	126 µM (≈ 51.4 µg/mL)	152 µM (≈ 62 µg/mL)	150 µM (≈ 61.2 µg/mL)	29 µM (≈ 11.8 µg/mL)	28 µM (≈ 11.4 µg/mL)	31 µM (≈ 12.6 µg/mL)	30 µM (≈ 12.2 µg/mL)	O=C(NCCCNc1ccnc2cc(Cl)ccc12)c1cc2ccccc2oc1=O [7c, N-(3-((7-Chloroquinolin-4-yl)amino)propyl)-2-oxo-2H-chromene-3-carboxamide]	3.95	3.88	1.155	1.969	2.20 and 2.21	0.8456	pIC50 [4]: 4.29
3.82	4.06	4.15	19 µM (≈ 10.1 µg/mL)	16 µM (≈ 8.51 µg/mL)	160 µM (≈ 85.1 µg/mL)	162 µM (≈ 86.2 µg/mL)	24 µM (≈ 12.8 µg/mL)	25 µM (≈ 13.3 µg/mL)	25 µM (≈ 13.3 µg/mL)	26 µM (≈ 13.8 µg/mL)	O=C(Nc1ccc(Cc2ccc(Nc3ccnc4cc(Cl)ccc34)cc2)cc1)c1cc2ccccc2oc1=O [7e, N-(4-(4-((7-Chloroquinolin-4-yl)amino)benzyl)phenyl)-2-oxo-2H-chromene-3-carboxamide]	4.03	3.46	0.6129	1.079	1.32	0.2658	–
